# Data published in PMC3399817 (PLoS ONE, 2012).
# Key:
# Test in all cases: KINOMEscan
# Type in all cases: binding
# PCTK1 = biological target: T1, PCTK1 (Homo sapiens, UniProt Q00536); conditions: PCTK1, 1 uM
# T1 construct: purchased Ambit KINOMEscan (DiscoverX)
# In short: (§1)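 Panel profiling at one dose (1 μM) identifies kinases prevented from binding substrate by the test molecule.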
# DAPK1 = biological target: T2, DAPK1 (Homo sapiens, UniProt P53355); conditions: DAPK1, 1 uM
# T2 construct: purchased Ambit KINOMEscan (DiscoverX)
# T2 sequence (P53355 whole entry): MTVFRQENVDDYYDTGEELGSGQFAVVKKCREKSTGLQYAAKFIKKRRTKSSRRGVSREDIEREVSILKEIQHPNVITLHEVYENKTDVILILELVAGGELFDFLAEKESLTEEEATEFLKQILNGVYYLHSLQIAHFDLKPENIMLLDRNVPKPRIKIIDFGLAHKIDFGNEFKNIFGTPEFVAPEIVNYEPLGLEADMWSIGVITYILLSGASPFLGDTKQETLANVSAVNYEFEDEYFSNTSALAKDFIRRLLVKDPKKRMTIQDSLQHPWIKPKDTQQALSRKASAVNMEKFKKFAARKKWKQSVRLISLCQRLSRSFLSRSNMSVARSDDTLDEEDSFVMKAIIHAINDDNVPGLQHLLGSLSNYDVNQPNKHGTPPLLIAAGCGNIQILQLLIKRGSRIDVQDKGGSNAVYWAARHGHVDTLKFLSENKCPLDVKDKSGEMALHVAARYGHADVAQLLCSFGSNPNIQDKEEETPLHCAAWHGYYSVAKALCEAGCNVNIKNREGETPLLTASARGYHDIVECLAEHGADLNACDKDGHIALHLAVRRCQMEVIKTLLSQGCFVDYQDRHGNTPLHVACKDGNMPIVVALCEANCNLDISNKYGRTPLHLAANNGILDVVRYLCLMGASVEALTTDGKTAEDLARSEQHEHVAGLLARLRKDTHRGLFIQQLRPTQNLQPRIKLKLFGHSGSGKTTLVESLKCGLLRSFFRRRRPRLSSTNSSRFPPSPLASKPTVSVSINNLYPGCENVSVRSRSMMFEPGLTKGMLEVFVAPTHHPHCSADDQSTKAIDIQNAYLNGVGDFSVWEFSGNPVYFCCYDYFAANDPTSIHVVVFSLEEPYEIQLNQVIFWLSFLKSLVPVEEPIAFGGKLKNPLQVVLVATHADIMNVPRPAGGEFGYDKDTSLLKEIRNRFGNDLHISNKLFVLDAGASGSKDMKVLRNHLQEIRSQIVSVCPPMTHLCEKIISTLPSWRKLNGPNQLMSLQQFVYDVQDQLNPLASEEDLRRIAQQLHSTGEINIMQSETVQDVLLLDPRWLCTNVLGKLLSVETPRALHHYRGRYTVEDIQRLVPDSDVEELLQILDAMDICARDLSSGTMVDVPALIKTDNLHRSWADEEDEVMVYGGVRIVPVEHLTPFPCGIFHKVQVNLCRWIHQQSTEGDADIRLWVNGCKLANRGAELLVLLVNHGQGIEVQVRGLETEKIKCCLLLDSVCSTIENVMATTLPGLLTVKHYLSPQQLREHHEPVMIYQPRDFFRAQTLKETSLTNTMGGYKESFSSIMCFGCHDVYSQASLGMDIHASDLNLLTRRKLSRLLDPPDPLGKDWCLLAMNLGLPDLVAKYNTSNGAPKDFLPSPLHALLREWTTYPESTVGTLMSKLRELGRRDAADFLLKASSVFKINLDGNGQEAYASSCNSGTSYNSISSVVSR
# In short: as §1
# SLK = biological target: T3, SLK (Homo sapiens, UniProt Q9H2G2); conditions: 1 uM
# T3 construct: purchased Ambit KINOMEscan (DiscoverX)
# In short: as §1
# CSNK1D = biological target: T4, CSNK1D (Homo sapiens, UniProt P48730); conditions: 1 uM
# T4 construct: purchased Ambit KINOMEscan (DiscoverX)
# In short: as §1
# ERK3 = biological target: T5, ERK3 (Homo sapiens, UniProt Q16659); conditions: ERK3, 1 uM
# T5 construct: purchased Ambit KINOMEscan (DiscoverX)
# T5 sequence (Q16659 whole entry): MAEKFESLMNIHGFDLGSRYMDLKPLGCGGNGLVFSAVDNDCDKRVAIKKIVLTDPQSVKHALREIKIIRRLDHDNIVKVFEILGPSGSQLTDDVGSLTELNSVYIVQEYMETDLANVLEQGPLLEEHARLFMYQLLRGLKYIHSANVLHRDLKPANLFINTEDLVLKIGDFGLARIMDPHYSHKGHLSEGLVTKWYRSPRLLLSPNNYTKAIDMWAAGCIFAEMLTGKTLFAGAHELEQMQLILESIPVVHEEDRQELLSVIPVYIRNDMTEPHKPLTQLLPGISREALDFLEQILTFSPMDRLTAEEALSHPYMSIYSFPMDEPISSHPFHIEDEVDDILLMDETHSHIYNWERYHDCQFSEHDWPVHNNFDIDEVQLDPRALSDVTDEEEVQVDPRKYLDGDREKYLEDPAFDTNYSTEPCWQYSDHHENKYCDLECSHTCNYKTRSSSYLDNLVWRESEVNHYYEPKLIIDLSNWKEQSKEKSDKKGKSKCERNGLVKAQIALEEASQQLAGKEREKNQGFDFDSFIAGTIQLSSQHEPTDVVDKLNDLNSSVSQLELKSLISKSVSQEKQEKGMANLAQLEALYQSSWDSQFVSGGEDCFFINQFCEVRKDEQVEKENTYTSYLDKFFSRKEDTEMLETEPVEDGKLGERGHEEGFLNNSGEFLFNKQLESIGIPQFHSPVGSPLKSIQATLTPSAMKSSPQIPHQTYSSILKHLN
# In short: as §1
# MAST1 = biological target: T6, MAST1 (Homo sapiens, UniProt Q9Y2H9); conditions: MAST1, 1 uM
# T6 construct: purchased Ambit KINOMEscan (DiscoverX)
# In short: as §1
# FLT1 = biological target: T7, FLT1 (Homo sapiens, UniProt P17948); conditions: FLT1, 1 uM
# T7 construct: purchased Ambit KINOMEscan (DiscoverX)
# In short: as §1
# ERBB4 = biological target: T8, ERBB4 (Homo sapiens, UniProt Q15303); conditions: ERBB4, 1 uM
# T8 construct: purchased Ambit KINOMEscan (DiscoverX)
# In short: as §1
# ROS1 = biological target: T9, ROS1 (Homo sapiens, UniProt P08922); conditions: ROS1, 1 uM
# T9 construct: purchased Ambit KINOMEscan (DiscoverX)
# In short: as §1
# DMPK2 = biological target: T10, DMPK2 (Homo sapiens, UniProt Q6DT37); conditions: DMPK2, 1 uM
# T10 construct: purchased Ambit KINOMEscan (DiscoverX)
# T10 sequence (Q6DT37 whole entry): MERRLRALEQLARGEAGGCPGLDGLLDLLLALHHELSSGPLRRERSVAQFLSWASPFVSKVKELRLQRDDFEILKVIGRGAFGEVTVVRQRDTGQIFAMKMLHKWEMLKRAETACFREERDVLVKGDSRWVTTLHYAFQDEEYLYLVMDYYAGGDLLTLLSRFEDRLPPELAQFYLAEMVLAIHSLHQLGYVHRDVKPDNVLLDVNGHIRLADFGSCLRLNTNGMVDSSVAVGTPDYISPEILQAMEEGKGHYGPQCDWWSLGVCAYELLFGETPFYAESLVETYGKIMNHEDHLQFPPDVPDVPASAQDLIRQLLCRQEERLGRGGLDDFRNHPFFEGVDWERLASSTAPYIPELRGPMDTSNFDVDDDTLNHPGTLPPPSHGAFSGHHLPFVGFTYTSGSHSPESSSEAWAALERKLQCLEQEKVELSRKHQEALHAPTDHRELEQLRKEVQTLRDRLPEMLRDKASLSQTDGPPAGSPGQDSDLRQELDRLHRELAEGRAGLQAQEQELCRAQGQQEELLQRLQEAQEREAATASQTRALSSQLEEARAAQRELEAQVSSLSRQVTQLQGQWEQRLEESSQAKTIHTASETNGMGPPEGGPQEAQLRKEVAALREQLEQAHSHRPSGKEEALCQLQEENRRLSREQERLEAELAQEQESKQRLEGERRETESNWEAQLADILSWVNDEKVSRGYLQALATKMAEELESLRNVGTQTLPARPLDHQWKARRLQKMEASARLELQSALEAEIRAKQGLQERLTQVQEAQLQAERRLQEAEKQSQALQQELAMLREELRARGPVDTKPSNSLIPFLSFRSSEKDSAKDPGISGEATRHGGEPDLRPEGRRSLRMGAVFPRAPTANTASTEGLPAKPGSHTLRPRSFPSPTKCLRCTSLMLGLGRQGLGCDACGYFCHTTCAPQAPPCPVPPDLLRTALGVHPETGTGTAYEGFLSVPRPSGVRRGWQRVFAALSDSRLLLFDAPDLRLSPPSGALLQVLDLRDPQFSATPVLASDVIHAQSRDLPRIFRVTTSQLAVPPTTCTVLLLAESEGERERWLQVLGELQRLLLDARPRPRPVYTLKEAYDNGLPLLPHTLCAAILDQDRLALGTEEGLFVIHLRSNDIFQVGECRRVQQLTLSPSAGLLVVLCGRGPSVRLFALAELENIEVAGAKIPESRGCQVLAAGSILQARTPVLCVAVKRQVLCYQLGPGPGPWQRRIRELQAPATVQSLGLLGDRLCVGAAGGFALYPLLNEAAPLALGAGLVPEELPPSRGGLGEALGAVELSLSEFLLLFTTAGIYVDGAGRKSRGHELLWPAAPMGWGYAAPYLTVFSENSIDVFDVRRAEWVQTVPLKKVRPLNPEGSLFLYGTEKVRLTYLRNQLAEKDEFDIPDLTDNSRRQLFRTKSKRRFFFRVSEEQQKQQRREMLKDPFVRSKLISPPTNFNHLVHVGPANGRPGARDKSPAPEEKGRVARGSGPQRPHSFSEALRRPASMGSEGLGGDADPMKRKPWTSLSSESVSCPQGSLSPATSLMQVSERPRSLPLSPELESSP
# In short: as §1
# IGF1R = biological target: T11, IGF1R (Homo sapiens, UniProt P08069); conditions: 1 uM
# T11 construct: purchased Ambit KINOMEscan (DiscoverX)
# In short: as §1
# TNK1 = biological target: T12, TNK1 (Homo sapiens, UniProt Q13470); conditions: TNK1, 1 uM
# T12 construct: purchased Ambit KINOMEscan (DiscoverX)
# In short: as §1
# PIK3CD = biological target: T13, PIK3CD (Homo sapiens, UniProt O00329); conditions: 1 uM
# T13 construct: purchased Ambit KINOMEscan (DiscoverX)
# In short: as §1
# EPHA3 = biological target: T14, EPHA3 (Homo sapiens, UniProt P29320); conditions: EPHA3, 1 uM
# T14 construct: purchased Ambit KINOMEscan (DiscoverX)
# In short: as §1
# EPHB2 = biological target: T15, EPHB2 (Homo sapiens, UniProt P29323); conditions: EPHB2, 1 uM
# T15 construct: purchased Ambit KINOMEscan (DiscoverX)
# In short: as §1
# PYK2 = biological target: T16, PYK2 (Homo sapiens, UniProt Q14289); conditions: PYK2, 1 uM
# T16 construct: purchased Ambit KINOMEscan (DiscoverX)
# In short: as §1
# RIOK3 = biological target: T17, RIOK3 (Homo sapiens, UniProt O14730); conditions: RIOK3, 1 uM
# T17 construct: purchased Ambit KINOMEscan (DiscoverX)
# In short: as §1
# DYRK1B = biological target: T18, DYRK1B (Homo sapiens, UniProt Q9Y463); conditions: 1 uM
# T18 construct: purchased Ambit KINOMEscan (DiscoverX)
# In short: as §1
# DAPK3 = biological target: T19, DAPK3 (Homo sapiens, UniProt O43293); conditions: DAPK3, 1 uM
# T19 construct: purchased Ambit KINOMEscan (DiscoverX)
# In short: as §1
# LOK = biological target: T20, LOK (Homo sapiens, UniProt O94804); conditions: 1 uM
# T20 construct: purchased Ambit KINOMEscan (DiscoverX)
# T20 sequence (O94804 whole entry): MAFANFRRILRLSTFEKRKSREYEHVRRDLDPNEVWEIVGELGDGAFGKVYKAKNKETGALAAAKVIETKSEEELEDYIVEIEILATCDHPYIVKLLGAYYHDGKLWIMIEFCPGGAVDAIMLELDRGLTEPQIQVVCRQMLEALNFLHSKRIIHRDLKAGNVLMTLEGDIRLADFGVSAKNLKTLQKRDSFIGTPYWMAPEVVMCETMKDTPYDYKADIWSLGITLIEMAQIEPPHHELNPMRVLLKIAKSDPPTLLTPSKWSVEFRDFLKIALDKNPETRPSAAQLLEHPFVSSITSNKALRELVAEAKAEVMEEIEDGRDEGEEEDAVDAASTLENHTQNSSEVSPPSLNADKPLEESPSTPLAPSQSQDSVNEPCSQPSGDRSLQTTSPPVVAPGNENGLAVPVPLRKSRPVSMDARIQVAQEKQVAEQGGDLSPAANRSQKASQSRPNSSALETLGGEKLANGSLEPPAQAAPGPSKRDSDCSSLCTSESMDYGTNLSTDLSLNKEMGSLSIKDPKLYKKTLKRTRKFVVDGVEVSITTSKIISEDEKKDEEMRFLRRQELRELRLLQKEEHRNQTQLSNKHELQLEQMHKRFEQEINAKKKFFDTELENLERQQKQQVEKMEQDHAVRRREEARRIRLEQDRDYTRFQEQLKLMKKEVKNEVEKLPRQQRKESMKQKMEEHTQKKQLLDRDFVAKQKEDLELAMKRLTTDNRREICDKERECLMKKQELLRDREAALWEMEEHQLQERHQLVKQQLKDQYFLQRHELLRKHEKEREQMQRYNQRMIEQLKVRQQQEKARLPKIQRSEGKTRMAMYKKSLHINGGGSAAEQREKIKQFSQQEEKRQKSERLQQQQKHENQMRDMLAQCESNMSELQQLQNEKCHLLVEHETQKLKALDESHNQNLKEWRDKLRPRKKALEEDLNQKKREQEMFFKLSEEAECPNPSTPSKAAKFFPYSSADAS
# In short: as §1
# DDR2 = biological target: T21, DDR2 (Homo sapiens, UniProt Q16832); conditions: DDR2, 1 uM
# T21 construct: purchased Ambit KINOMEscan (DiscoverX)
# In short: as §1
# ERBB2 = biological target: T22, ERBB2 (Homo sapiens, UniProt P04626); conditions: ERBB2, 1 uM
# T22 construct: purchased Ambit KINOMEscan (DiscoverX)
# In short: as §1
# FGFR3(G697C) = biological target: T23, FGFR3(G697C) (Homo sapiens, UniProt P22607, G697C); conditions: 1 uM
# T23 construct: purchased Ambit KINOMEscan (DiscoverX)
# In short: as §1
# CDK9 = biological target: T24, CDK9 (Homo sapiens, UniProt P50750); conditions: for % binding compared to no inhibitor control: CDK9, 1 uM
# T24 construct: purchased Ambit KINOMEscan (DiscoverX)
# T24 sequence (P50750 whole entry): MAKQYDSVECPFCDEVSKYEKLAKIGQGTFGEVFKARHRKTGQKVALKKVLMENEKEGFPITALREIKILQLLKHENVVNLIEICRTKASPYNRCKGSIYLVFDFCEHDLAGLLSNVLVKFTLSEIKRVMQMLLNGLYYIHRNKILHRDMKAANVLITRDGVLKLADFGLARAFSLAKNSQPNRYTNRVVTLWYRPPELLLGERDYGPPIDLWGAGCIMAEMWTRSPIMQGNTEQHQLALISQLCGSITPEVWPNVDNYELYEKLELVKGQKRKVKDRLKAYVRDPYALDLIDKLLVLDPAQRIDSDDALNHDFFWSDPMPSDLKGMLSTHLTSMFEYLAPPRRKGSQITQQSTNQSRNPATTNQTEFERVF
# In short: as §1
# SRPK1 = biological target: T25, SRPK1 (Homo sapiens, UniProt Q96SB4); conditions: SRPK1, 1 uM
# T25 construct: purchased Ambit KINOMEscan (DiscoverX)
# In short: as §1
# MYO3A = biological target: T26, MYO3A (Homo sapiens, UniProt Q8NEV4); conditions: 1 uM
# T26 construct: purchased Ambit KINOMEscan (DiscoverX)
# In short: as §1
# ACVR2B = biological target: T27, ACVR2B (Homo sapiens, UniProt Q13705); conditions: 1 uM
# T27 construct: purchased Ambit KINOMEscan (DiscoverX)
# In short: as §1
# DCAMKL3 = biological target: T28, DCAMKL3 (Homo sapiens, UniProt Q9C098); conditions: DCAMKL3, 1 uM
# T28 construct: purchased Ambit KINOMEscan (DiscoverX)
# In short: as §1
# PIK3CA(E542K) = biological target: T29, PIK3CA(E542K) (Homo sapiens, UniProt P42336, E542K); conditions: 1 uM
# T29 construct: purchased Ambit KINOMEscan (DiscoverX)
# In short: as §1
# PRKX = biological target: T30, PRKX (Homo sapiens, UniProt P51817); conditions: 1 uM
# T30 construct: purchased Ambit KINOMEscan (DiscoverX)
# In short: as §1
# CSF1R = biological target: T31, CSF1R (Homo sapiens, UniProt P07333); conditions: 1 uM
# T31 construct: purchased Ambit KINOMEscan (DiscoverX)
# In short: as §1
# EGFR(G719S) = biological target: T32, EGFR(G719S) (Homo sapiens, UniProt P00533, G719S); conditions: 1 uM
# T32 construct: purchased Ambit KINOMEscan (DiscoverX)
# In short: as §1
# TBK1 = biological target: T33, TBK1 (Homo sapiens, UniProt Q9UHD2); conditions: TBK1, 1 uM
# T33 construct: purchased Ambit KINOMEscan (DiscoverX)
# In short: as §1
# LATS2 = biological target: T34, LATS2 (Homo sapiens, UniProt Q9NRM7); conditions: LATS2, 1 uM
# T34 construct: purchased Ambit KINOMEscan (DiscoverX)
# In short: as §1
# CHEK2 = biological target: T35, CHEK2 (Homo sapiens, UniProt O96017); conditions: CHEK2, 1 uM
# T35 construct: purchased Ambit KINOMEscan (DiscoverX)
# In short: as §1
# FGR = biological target: T36, FGR (Homo sapiens, UniProt P09769); conditions: 1 uM
# T36 construct: purchased Ambit KINOMEscan (DiscoverX)
# In short: as §1
# PRKD3 = biological target: T37, PRKD3 (Homo sapiens, UniProt O94806); conditions: PRKD3, 1 uM
# T37 construct: purchased Ambit KINOMEscan (DiscoverX)
# In short: as §1
# KIT = biological target: T38, KIT (Homo sapiens, UniProt P10721); conditions: 1 uM
# T38 construct: purchased Ambit KINOMEscan (DiscoverX)
# In short: as §1
# VEGFR2 = biological target: T39, VEGFR2 (Homo sapiens, UniProt P35968); conditions: VEGFR2, 1 uM
# T39 construct: purchased Ambit KINOMEscan (DiscoverX)
# In short: as §1
# PIK3CA(H1047Y) = biological target: T40, PIK3CA(H1047Y) (Homo sapiens, UniProt P42336, H1047Y); conditions: 1 uM
# T40 construct: purchased Ambit KINOMEscan (DiscoverX)
# In short: as §1
smiles,measurement,setting,value
"COc1ccc(-c2cc3nccn3c(Nc3ncccc3C(N)=O)n2)cc1OC.Cl.Cl [BAY61-3606, 2-[7-(3,4-dimethoxyphenyl)-imidazo [1,2-c]pyrimidin-5-ylamino] nicotinamide dihydrochloride, reference compound]",% binding compared to no inhibitor control,PCTK1,86%
same,% binding compared to no inhibitor control,DAPK1,66%
same,% binding compared to no inhibitor control,SLK,58%
same,% binding compared to no inhibitor control,CSNK1D,74%
same,% binding compared to no inhibitor control,ERK3,73%
same,% binding compared to no inhibitor control,MAST1,52%
same,% binding compared to no inhibitor control,FLT1,100%
same,% binding compared to no inhibitor control,ERBB4,90%
same,% binding compared to no inhibitor control,ROS1,45%
same,% binding compared to no inhibitor control,DMPK2,86%
same,% binding compared to no inhibitor control,IGF1R,97%
same,% binding compared to no inhibitor control,TNK1,82%
same,% binding compared to no inhibitor control,PIK3CD,81%
same,% binding compared to no inhibitor control,EPHA3,83%
same,% binding compared to no inhibitor control,EPHB2,100%
same,% binding compared to no inhibitor control,PYK2,94%
same,% binding compared to no inhibitor control,RIOK3,98%
same,% binding compared to no inhibitor control,DYRK1B,81%
same,% binding compared to no inhibitor control,DAPK3,71%
same,% binding compared to no inhibitor control,LOK,83%
same,% binding compared to no inhibitor control,DDR2,74%
same,% binding compared to no inhibitor control,ERBB2,93%
same,% binding compared to no inhibitor control,FGFR3(G697C),83%
same,% binding compared to no inhibitor control,CDK9,56%
same,% inhibition ATP binding,"CDK9; CDK9, KINOMEscan, 1 μM",44%
same,% binding compared to no inhibitor control,SRPK1,88%
same,% binding compared to no inhibitor control,MYO3A,80%
same,% binding compared to no inhibitor control,ACVR2B,77%
same,% binding compared to no inhibitor control,DCAMKL3,100%
same,% binding compared to no inhibitor control,PIK3CA(E542K),99%
same,% binding compared to no inhibitor control,PRKX,75%
same,% binding compared to no inhibitor control,CSF1R,51%
same,% binding compared to no inhibitor control,EGFR(G719S),71%
same,% binding compared to no inhibitor control,TBK1,47%
same,% binding compared to no inhibitor control,LATS2,45%
same,% binding compared to no inhibitor control,CHEK2,100%
same,% binding compared to no inhibitor control,FGR,80%
same,% binding compared to no inhibitor control,PRKD3,37%
same,% binding compared to no inhibitor control,KIT,8.4%
same,% binding compared to no inhibitor control,VEGFR2,94%
same,% binding compared to no inhibitor control,PIK3CA(H1047Y),80%
COc1ccccc1Nc1nc(-c2ccc(OC)c(OC)c2)cc2nccn12 [BAY derivative 6],% binding compared to no inhibitor control,PCTK1,100%
same,% binding compared to no inhibitor control,DAPK1,76%
same,% binding compared to no inhibitor control,SLK,28%
same,% binding compared to no inhibitor control,CSNK1D,100%
same,% binding compared to no inhibitor control,ERK3,88%
same,% binding compared to no inhibitor control,MAST1,74%
same,% binding compared to no inhibitor control,FLT1,100%
same,% binding compared to no inhibitor control,ERBB4,100%
same,% binding compared to no inhibitor control,ROS1,36%
same,% binding compared to no inhibitor control,DMPK2,88%
same,% binding compared to no inhibitor control,IGF1R,79%
same,% binding compared to no inhibitor control,TNK1,56%
same,% binding compared to no inhibitor control,PIK3CD,100%
same,% binding compared to no inhibitor control,EPHA3,100%
same,% binding compared to no inhibitor control,EPHB2,99%
same,% binding compared to no inhibitor control,PYK2,100%
same,% binding compared to no inhibitor control,RIOK3,80%
same,% binding compared to no inhibitor control,DYRK1B,57%
same,% binding compared to no inhibitor control,DAPK3,100%
same,% binding compared to no inhibitor control,LOK,53%
same,% binding compared to no inhibitor control,DDR2,100%
same,% binding compared to no inhibitor control,ERBB2,71%
same,% binding compared to no inhibitor control,FGFR3(G697C),70%
same,% binding compared to no inhibitor control,CDK9,100%
same,% binding compared to no inhibitor control,SRPK1,75%
same,% binding compared to no inhibitor control,MYO3A,100%
same,% binding compared to no inhibitor control,ACVR2B,100%
same,% binding compared to no inhibitor control,DCAMKL3,100%
same,% binding compared to no inhibitor control,PIK3CA(E542K),100%
same,% binding compared to no inhibitor control,PRKX,73%
same,% binding compared to no inhibitor control,CSF1R,42%
same,% binding compared to no inhibitor control,EGFR(G719S),100%
same,% binding compared to no inhibitor control,TBK1,100%
same,% binding compared to no inhibitor control,LATS2,88%
same,% binding compared to no inhibitor control,CHEK2,97%
same,% binding compared to no inhibitor control,FGR,54%
same,% binding compared to no inhibitor control,PRKD3,100%
same,% binding compared to no inhibitor control,KIT,60%
same,% binding compared to no inhibitor control,VEGFR2,100%
same,% binding compared to no inhibitor control,PIK3CA(H1047Y),100%
